# Where no end group is shown, it is not given here. The star is where a group is joined. Biotin = O=C1N[C@H]2[C@H](CS[C@H]2CCCCC(=O)*)N1
# How the values were obtained:
# [1] = molecular target: T1, P. falciparum aldolase (Plasmodium falciparum, UniProt Q7KQL9); assay: biochemical; assay type: binding; conditions: for increase in affinity for aldolase following phosphorylation: phosphorylated versus unmodified CTD, from Kd values of Table 3
# T1 construct: made in house
# Source text: CTDs of four classes of type 1 membrane protein (AMA1 and the TRAP, EBL and RH families) that are potential adhesins or host cell invasion proteins derived from apical organelles, and present in the merozoite plasma membrane during invasion, were examined for their ability to bind to aldolase using bio-layer interferometry. Streptavidin-coated biosensors were loaded with biotinylated synthetic peptides or recombinant proteins representing either the full length CTDs or shorter C-terminal sequences (Table 1) and titrated with increasing aldolase concentrations. This analysis enabled the calculation of a dissociation constant (Kd) for each pair of proteins as a measure of the strength of interaction between them.
# The effect of the CTD phosphorylation on aldolase binding was investigated using biolayer interferometry using phosphorylated synthetic peptides or peptides phosphorylated in vitro (Table 3).
# Protein interactions were analysed by biolayer interferometry using the Octet Red system (ForteBio) at 25°C in 96-well microplates, as described previously. All assays were performed in 100 mM Tris-HCl pH 8.0, according to the manufacturer’s instructions. A baseline was established over 1 min, and biotinylated samples were loaded onto streptavidin sensors for 1 min. The sensors were washed for 1 min and then incubated with aldolase at different concentrations (0.05–250 μM) for 1 min, followed by a dissociation phase over 5 min. The experiments were performed in duplicate or triplicate depending on the experiment. The data were analysed as described previously.
# [2] = system: CDPK1; assay: In vitro phosphorylation of CTDs by CDPK1; assay type: biochemical; parameters: key: Phosphorylation (+) was confirmed by electrospray-mass spectrometry; conditions: 10 μM kinase, 100 μM substrate, 1 mM ATP, 30°C, 3 hours; electrospray-mass spectrometry
# Experimental: To examine whether or not phosphorylation affected the ability of the CTDs to bind aldolase, we first looked at their ability to be phosphorylated by serine/threonine kinases in vitro. Two kinases, CDPK1 and PKA, which have been implicated in phosphorylation of glideosome proteins, were chosen for this analysis (Table 2).
# (§1) The phosphorylation of MTRAP and TRAP CTDs expressed as fusion proteins with GST was evaluated in vitro by ^32P incorporation (Fig 1A) and by electrospray (ES) mass spectrometry and collision-induced dissociation (CID) fragmentation analysis. […] Using ES-MS and CID it was determined that both CDPK1 and PKA phosphorylated AMA1 at Ser610 (S1B and S2B Figs), the residue implicated in earlier studies. […] CDPK1 but not PKA phosphorylated EBA140 (Table 2, S2E Fig), the exact sites of which were not determined (S1E Fig). […]
# (§2) Phosphorylation assays were performed using 10 μM recombinant CDPK1 [37], PKA (Promega), or CK2 (New England Biolabs) in kinase buffer (20 mM Tris-HCl pH 8.0, 20 mM MgCl2, with or without 1 mM CaCl2) and 1 mM ATP at 30°C for 3 hours with 100 μM substrate protein. Products were analysed by mass spectrometry and used in binding assays (see below). […]
# Non-phosphorylated, phosphorylated and biotinylated polypeptides were analysed by electrospray (ES)-mass spectrometry and collision-induced dissociation (CID) fragmentation pathway analysis. […]
# [3] = system: CK2; assay: In vitro phosphorylation of CTDs by CK2; assay type: biochemical; conditions: 10 μM kinase, 100 μM substrate, 1 mM ATP, 30°C, 3 hours; ES-MS and CID
# Experimental: as §1, with “analysis. […] MTRAP CTD produced as either a recombinant protein or as a synthetic peptide was also phosphorylated by PKA at the same two positions (S2A Fig).” for “analysis.”
# as §2
# Non-phosphorylated, phosphorylated and biotinylated polypeptides were analysed by electrospray (ES)-mass spectrometry and collision-induced dissociation (CID) fragmentation pathway analysis. […] Phosphorylation sites were determined using stand-alone nanospray on an LTQ Orbitrap Velos (Thermo Fisher Scientific). […]
# T1 sequence (Q7KQL9 whole entry): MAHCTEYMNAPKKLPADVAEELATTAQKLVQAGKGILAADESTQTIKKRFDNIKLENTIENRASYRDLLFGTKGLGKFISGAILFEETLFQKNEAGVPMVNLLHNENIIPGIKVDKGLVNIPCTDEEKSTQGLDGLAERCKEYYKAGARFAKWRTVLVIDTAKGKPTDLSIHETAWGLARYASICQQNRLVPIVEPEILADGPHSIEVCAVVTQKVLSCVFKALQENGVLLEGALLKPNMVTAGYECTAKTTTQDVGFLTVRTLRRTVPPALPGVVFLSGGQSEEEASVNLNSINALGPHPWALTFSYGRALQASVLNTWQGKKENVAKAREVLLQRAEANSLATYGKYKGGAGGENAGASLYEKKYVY
Substance,"Kd ([1]; biolayer interferometry (Octet Red), biotinylated CTD on streptavidin sensor, aldolase 0.05–250 μM, 100 mM Tris-HCl pH 8.0, 25°C, mean of duplicate reactions) [µM]",increase in affinity for aldolase following phosphorylation [1],CTD peptide phosphorylation by CDPK1 in vitro [2],phosphorylation by CK2 in vitro [3]
Biotin-KNNKQEYDKEQEKQQQNDFVCDNNKMDDKSTQKYGRNQEEVMEIFFDNDYI [RH1 2921–2971],6.1,around 2 fold,+,
"Biotin-KNSNEPHHIFNIFQKEFSEADNAHSEEKEEYLPVYFDEVEDEVEDEVEDEDENENEVENENEDFNDI [RH4, cytoplasmic domain of RH4, residues 1650–1716]",,no increase in affinity,,one phosphate group

# Reference: paper PMC5015959, “The Binding of Plasmodium falciparum Adhesins and Erythrocyte Invasion Proteins to Aldolase Is Enhanced by Phosphorylation” (PLoS ONE, 2016)
